In US9604973B2, “Anti-cancer polyketide compounds” (priority 2012, dated 2017):

Columns and labels:
[1] = system: GAPDH; experiment: RT-PCR of spliced and unspliced mRNA (intron retention) in CLL cells, housekeeping gene; format: cell-based, human; details: 4 hours, same concentrations
Experimental: (§1) FIG. 23: FD-895 and PLAD induced inhibition of splicing in CLL: RT-PCR for analysis of spliced and unspliced mRNAs. CLL cells treated with FD-895, PLAD (10, 100 nM), chemotherapeutic agent like bendamustine (33, 100 μM) and F-Ara-A (3, 10, 33 μM) for 4 hours. RT-PCR for DNAJB1 was performed with primers spanning two exons; products were analyzed on ethidium bromide-stained agarose gels (2%) to visualize the correct size of the unspliced mRNAs. […] The exon structure of DNAJB1 gene is indicated. G, human genomic DNA was used as a control; U, unspliced mRNA; S, spliced mRNA.
(§2) CLL cells were treated with 10 and 100 nM of FD-895 and PLAD, 33 and 100 μM of bendamustine and 3, 10, and 33 μM of F-Ara-A for 4 h. Normal B and CLL cells were treated with 100 nM of FD-895 and PLAD and 10 μM of F-Ara-A for 15 minutes, 30 minutes, 1, 2 and 4 h. Total RNA was extracted using mirVana™ miRNA isolation kit (Ambion Life Technology, USA). After DNase treatment, 200 ng total RNA was reverse-transcribed using a SuperScript™ III first-strand synthesis system (Invitrogen). PCR was performed on 10 ng of the obtained cDNA (or human genomic DNA as a control) in 25 μl of reaction mixture containing Plantinum® PCR SuperMix High-fidelity (Invitrogen Life Technology, USA), and 0.1 μM of each primer of the appropriate pair.
(§3) PCR conditions were 94° C. for 3 min; 35 cycles of 94° C. for 30 s, 60° C. for 30 s, and 72° C. for 1 min; followed by 72° C. for 5 min. PCR products were separated on a 2% agarose gel and stained with ethidium bromide.

[2] = system: DNAJB1; experiment: RT-PCR of spliced and unspliced mRNA (intron retention) in CLL cells; format: cell-based, human; details: 4 hours, FD-895, PLAD 10, 100 nM, bendamustine 33, 100 μM, F-Ara-A 3, 10, 33 μM
Experimental: as §1, §2, §3

[3] = system: CLL cells; experiment: Flow cytometry, % specific induced apoptosis (DiOC6/PI) in primary CLL cells; format: cell-based, human; details: Homo sapiens, CLL cell; CLL cells from patient with del (17p) and Tp53 mutation, 48 hours
Experimental: FIG. 20A-20C: FD-895 and PLAD induce apoptosis in CLL cells but not in normal lymphocytes with a TP53 independent activity: Primary leukemia B cells from CLL (FIG. 20A) patient with del (17p) and Tp53 mutation, (FIG. 20B) patient with wild type p53 and sensitive to F-Ara-A and (FIG. 20C) normal lymphocytes from healthy donor were incubated with FD-895, PLAD and F-Ara-A (0, 10, 100, 1000 10,000 nM) for 48 hours.
FIG. 21: FD-895 and PLAD induce apoptosis in CLL cells not ONLY independently of Tp53 but also independently of SF3B1 mutational status: Primary leukemia B cells from CLL patient with SF3B1 wild, SF3B1 mutation, 17p DEL and normal B and T lymphocytes from healthy donor were incubated with FD-895 and PLAD with 100 nM for 48 hours. After incubation, the samples were harvested and % SIA was measured by flow cytometry as described above. […] Each dots represents number of CLL patient sample and normal B or T cells.
Peripheral blood mononuclear cells (PBMC) from patients with CLL were obtained from the CLL Research Consortium (CRC) tissue bank. The blood samples were collected after obtaining a written informed consent from the patients under a protocol approved by the institutional review board of The University of California, San Diego. All patients met criteria for CLL.^1 CLL B cells and PBMCs were separated from heparinized venous blood of the B-CLL patients by density gradient centrifugation using Ficoll-Hypaque (GE healthcare) as described earlier.^2 The samples that were used had more than 95% positive cells for CD19 and CD5+, as assessed by flow cytometry. CLL B cells were maintained in RPMI 1640 medium supplemented with 10% FBS, 2 mM L-glutamine, and 100 U/mL of penicillin and 100 μg/mL of streptomycin at 37° C. in an atmosphere of 5% CO2.
Apoptotic and viable cells were discriminated via flow cytometry of cells stained with 3,3′ dihexyloxacarbocyanine iodide (DiOC6) (Molecular Probes, Eugene, Oreg., USA) and propidium iodine (Sigma, St Louis, Mo., USA), as described.^3 Using this method viable cells exclude PI and stain brightly positive for DiOC6.

[4] = system: HCT-116 cell line; experiment: MTT cell proliferation assay; format: cell-based; details: HCT-116 cell line; for IC50: MTT
Source text: Structure Activity Relationships (SAR) studies for 1SS, […], 1RS, and […]. It has been reported that ablation of C3, C6 and C7 substituents is detrimental to activity. […] (See FIG. 4). Additional activity was also observed when C17 was left in its natural R configuration.

Structure (SMILES): Cn1c(CCCC(=O)O)nc2cc(N(CCCl)CCCl)ccc21 [Bendamustine]
- splicing inhibition of housekeeping gene GAPDH [1]: Neither FD-895, PLAD nor chemotherapy agents showed splicing inhibition
- intron retention/splicing inhibition of DNAJB1 [2]: did not show intron retention/splicing inhibition

Structure (SMILES): Nc1nc(F)nc2c1ncn2[C@@H]1O[C@H](COP(=O)(O)O)[C@@H](O)[C@@H]1O [F-Ara-A, Fludarabine phosphate]
- IC50 [3]: > 10000 nM

Structure (SMILES): CC[C@H](OC)[C@@H](C)[C@H]1O[C@@H]1[C@H](O)[C@@H](C)/C=C/C=C(\C)[C@H]1OC(=O)C[C@H](O)CC[C@@](C)(O)[C@@H](OC(C)=O)/C=C/[C@@H]1C [Isomer 1RS]
- times more active than FD-895 [4]: ~25 times
- IC50 [4]: 0.8 ± 0.05 nM

Structure (SMILES): CC[C@H](OC)[C@@H](C)[C@H]1O[C@@H]1[C@@H](O)[C@H](C)/C=C/C=C(\C)[C@H]1OC(=O)C[C@H](O)CC[C@@](C)(O)[C@@H](OC(C)=O)/C=C/[C@@H]1C [Isomer 1SR]
- IC50 [4]: 3.7 ± 0.2 nM

Structure (SMILES): CC[C@H](OC)[C@@H](C)[C@H]1O[C@@H]1[C@@H](O)[C@@H](C)/C=C/C=C(\C)[C@H]1OC(=O)C[C@H](O)CC[C@@](C)(O)[C@@H](OC(C)=O)/C=C/[C@@H]1C [Isomer 1SS]
- IC50 ([4]; Homo sapiens): 23 ± 1.2 nM
